Reference: patent US9650369B2, “Anti-migration and anti-invasion thiazole analogs for treatment of cellular proliferative disease” (XAVIER UNIVERSITY OF LOUISIANA, priority 2012, dated 2017)

Columns and labels:
[1] = cytotoxicity of additional thiazole compounds (Table 3); format: cell-based; details: cell line not given
From the text: (§1) The additional thiazole compounds were synthesized and tested for antimigration efficacy and cytotoxicity, with results shown in TABLE 3.

[2] = antimigration efficacy of additional thiazole compounds (Table 3); format: cell-based; details: cell line not given; read-out: IC50 (anti-migration)
From the text: as §1

Row | IC50 [2] [nM] | SMILES | Cytotoxicity (Survival at 1 μM) [1] [%]
1 | 5560 | CCn1c(-c2ccc(C)cc2C)csc1=NC(=O)c1ccccc1 [Compound 5l, N-(4-(2,4-Dimethylphenyl)-3-ethylthiazol-2(3H)-ylidene)benzamide] | 141.8
2 | 176 | CCCn1c(-c2ccc(C)cc2C)csc1=NC(=O)c1ccccc1 [Compound 5m, N-(4-(2,4-Dimethylphenyl)-3-propylthiazol-2(3H)-ylidene)benzamide] | 85.0
3 | 333 | CCCCn1c(-c2ccc(C)cc2C)csc1=NC(=O)c1ccccc1 [Compound 5n, N-(3-Butyl-4-(2,4-dimethylphenyl)thiazol-2(3H)-ylidene)benzamide] | 70.4
4 | 32 | CCCCCCCCCCCCn1c(-c2ccc(C)cc2C)csc1=NC(=O)c1ccccc1 [Compound 5p, N-(4-(2,4-Dimethylphenyl)-3-dodecylthiazol-2(3H)-ylidene)benzamide] | 109.5
5 | 242 | C=CCn1c(-c2ccc(C)cc2C)csc1=NC(=O)c1ccccc1 [Compound 5q, N-(3-Allyl-4-(2,4-dimethylphenyl)thiazol-2(3H)-ylidene)benzamide] | 115.3
6 | 11000 | C#CCn1c(-c2ccc(C)cc2C)csc1=NC(=O)c1ccccc1 [Compound 5r, N-(4-(2,4-Dimethylphenyl)-3-(prop-2-yn-1-yl)thiazol-2(3H)-ylidene)benzamide] | 70.2
7 | – | C#CCN(C(=O)c1ccccc1)c1nc(-c2ccc(C)cc2C)cs1 [Compound 6, N-(4-(2,4-Dimethylphenyl)thiazol-2-yl)-N-(prop-2-yn-1-yl)benzamide] | 106.4
8 | 565 | CCN(C(=O)c1ccccc1)c1nc(-c2ccccc2)cs1 [Compound 7a, N-Ethyl-N-(4-phenylthiazol-2-yl)benzamide] | 68.5
9 | 432 | CCCn1c(-c2ccccc2)csc1=NC(=O)c1ccccc1 [Compound 7b, N-(4-Phenyl-3-propylthiazol-2(3H)-ylidene)benzamide] | 100.0
10 | 24.3 | C=CCn1c(-c2ccccc2)csc1=NC(=O)c1ccccc1 [Compound 7c, N-(3-Allyl-4-phenylthiazol-2(3H)-ylidene)benzamide] | 64.8
11 | 64.7 | C#CCn1c(-c2ccccc2)csc1=NC(=O)c1ccccc1 [Compound 7d, N-(4-Phenyl-3-(prop-2-yn-1-yl)thiazol-2(3H)-ylidene)benzamide] | 63.0
12 | 883 | CCn1c(-c2ccccc2)csc1=NC(=O)c1ccccc1 [Compound 8a, N-(4-phenyl-3-ethylthiazol-2(3H)-ylidene)benzamide] | 128.9
13 | 32.4 | CCCN(C(=O)c1ccccc1)c1nc(-c2ccccc2)cs1 [Compound 8b, N-(4-Phenylthiazol-2-yl)-N-propylbenzamide] | 116.0
14 | 11000 | Cc1ccc(-c2csc(NS(=O)(=O)c3ccccc3)n2)c(C)c1 [Compound 10, N-(4-(2,4-Dimethylphenyl)thiazol-2-yl)benzenesulfonamide] | 137.4
15 | 1460 | Cc1ccc(-c2csc(=NS(=O)(=O)c3ccccc3)n2C)c(C)c1 [Compound 11, N-(4-(2,4-Dimethylphenyl)-3-methylthiazol-2(3H)-ylidene)benzenesulfonamide] | 92.4
16 | > 25000 | Cc1ccc(-c2csc(N(C)S(=O)(=O)c3ccccc3)n2)c(C)c1 [Compound 12, N-(4-(2,4-Dimethylphenyl)thiazol-2-yl)-N-methylbenzenesulfonamide] | 116.7
17 | 12000 | Cc1csc(NC(=O)c2ccccc2)n1 [Compound 14a, N-(4-Methylthiazol-2-yl)benzamide] | 103.1
18 | 15000 | O=C(Nc1nc(-c2ccccc2Cl)cs1)c1ccccc1 [Compound 14b, N-(4-(2-Chlorophenyl)thiazol-2-yl)benzamide] | 102.4
19 | 10000 | O=C(Nc1nc(-c2cccc(Br)c2)cs1)c1ccccc1 [Compound 14c, N-(4-(3-Bromophenyl)thiazol-2-yl)benzamide] | 78.0
20 | 9500 | O=C(Nc1nc(-c2ccc(Br)cc2)cs1)c1ccccc1 [Compound 14d, N-(4-(4-Bromophenyl)thiazol-2-yl)benzamide] | 82.2
21 | 123 | O=C(Nc1nc(-c2cccc(Cl)c2)cs1)c1ccccc1 [Compound 14e, N-(4-(3-Chlorophenyl)thiazol-2-yl)benzamide] | 71.4

Row | IC50 [2] [nM] | SMILES | Cytotoxicity (Survival at 1 μM) [1] [%]
22 | 336 | O=C(Nc1nc(-c2cc(C(F)(F)F)cc(C(F)(F)F)c2)cs1)c1ccccc1 [Compound 14f, N-(4-(3,5-Bis(trifluoromethyl)phenyl)thiazol-2-yl)benzamide] | 85.8
23 | > 50000 | COc1cc(-c2csc(NC(=O)c3ccccc3)n2)cc(OC)c1OC [Compound 14g, N-(4-(3,4,5-Trimethoxyphenyl)thiazol-2-yl)benzamide] | 95.0
24 | > 25000 | Cc1sc(NC(=O)c2ccccc2)nc1-c1ccccc1 [Compound 14h, N-(5-Methyl-4-phenylthiazol-2-yl)benzamide] | 99.0
25 | 9100 | Cc1sc(NC(=O)c2ccccc2)nc1-c1ccc(F)cc1 [Compound 14i, N-(4-(4-Fluorophenyl)-5-methylthiazol-2-yl)benzamide] | 53.7
26 | 308 | Cc1ccc(-c2cnc(NC(=O)c3ccccc3)s2)cc1 [Compound 14j, N-(5-(p-Tolyl)thiazol-2-yl)benzamide] | 55.6
27 | > 25000 | COc1ccc(C(=O)Nc2nc(-c3cc(OC)c(OC)c(OC)c3)cs2)cc1 [Compound 14k, 4-Methoxy-N-(4-(3,4,5-trimethoxyphenyl)thiazol-2-yl)benzamide] | 93.8
28 | > 25000 | COc1cc(-c2csc(NC(=O)c3ccc(Cl)cc3)n2)cc(OC)c1OC [Compound 14l, 4-Chloro-N-(4-(3,4,5-trimethoxyphenyl)thiazol-2-yl)benzamide] | 85.6
29 | > 25000 | COc1ccc(C(=O)Nc2nc(-c3cc(OC)c(OC)c(OC)c3)cs2)cc1OC [Compound 14m, 3,4-Dimethoxy-N-(4-(3,4,5-trimethoxyphenyl)thiazol-2-yl)benzamide] | 87.3
30 | > 50000 | COc1ccc(C(=O)Nc2nc(-c3cc(OC)c(OC)c(OC)c3)cs2)c(OC)c1 [Compound 14n, 2,4-Dimethoxy-N-(4-(3,4,5-trimethoxyphenyl)thiazol-2-yl)benzamide] | 93.8
31 | 1030 | COc1cc(C(=O)Nc2nc(-c3cc(OC)c(OC)c(OC)c3)cs2)cc(OC)c1OC [Compound 14o, 3,4,5-Trimethoxy-N-(4-(3,4,5-trimethoxyphenyl)thiazol-2-yl)benzamide] | 77.6
32 | 15000 | COc1cc(-c2csc(NC(=O)c3cccc(OC)c3OC)n2)cc(OC)c1OC [Compound 14p, 2,3-Dimethoxy-N-(4-(3,4,5-trimethoxyphenyl)thiazol-2-yl)benzamide] | 90.1
33 | 8500 | COc1ccccc1C(=O)Nc1nc(-c2cc(OC)c(OC)c(OC)c2)cs1 [Compound 14q, 2-Methoxy-N-(4-(3,4,5-trimethoxyphenyl)thiazol-2-yl)benzamide] | 103.7
34 | 14000 | COc1cccc(C(=O)Nc2nc(-c3cc(OC)c(OC)c(OC)c3)cs2)c1 [Compound 14r, 3-Methoxy-N-(4-(3,4,5-trimethoxyphenyl)thiazol-2-yl)benzamide] | 92.6
35 | 15000 | Cc1csc(=NC(=O)c2ccccc2)n1C [Compound 15a, N-(3,4-Dimethylthiazol-2(3H)-ylidene)benzamide] | 102.6
36 | 268 | Cn1c(-c2ccccc2Cl)csc1=NC(=O)c1ccccc1 [Compound 15b, N-(4-(2-Chlorophenyl)-3-methylthiazol-2(3H)-ylidene)benzamide] | 72.2
37 | 300 | Cn1c(-c2cccc(Br)c2)csc1=NC(=O)c1ccccc1 [Compound 15c, N-(4-(3-Bromophenyl)-3-methylthiazol-2(3H)-ylidene)benzamide] | 94.4
38 | 125 | Cn1c(-c2ccc(Br)cc2)csc1=NC(=O)c1ccccc1 [Compound 15d, N-(4-(4-Bromophenyl)-3-methylthiazol-2(3H)-ylidene)benzamide] | 59.3
39 | 367 | Cn1c(-c2cccc(Cl)c2)csc1=NC(=O)c1ccccc1 [Compound 15e, N-(4-(3-Chlorophenyl)-3-methylthiazol-2(3H)-ylidene)benzamide] | 35.2
40 | 96 | Cn1c(-c2cc(C(F)(F)F)cc(C(F)(F)F)c2)csc1=NC(=O)c1ccccc1 [Compound 15f, N-(4-(3,5-Bis(trifluoromethyl)phenyl)-3-methylthiazol-2(3H)-ylidene)benzamide] | 79.8
41 | 1070 | COc1cc(-c2cs/c(=N/C(=O)c3ccccc3)n2C)cc(OC)c1OC [Compound 15g, N-(4-(3,4,5-Trimethoxyphenyl)-3-methylthiazol-2(3H)-yliene)-benzamide] | 88.4
42 | 197 | Cc1sc(=NC(=O)c2ccccc2)n(C)c1-c1ccccc1 [Compound 15h, N-(3,5-Dimethyl-4-phenylthiazol-2(3H)-ylidene)benzamide] | 68.4

Row | SMILES | IC50 [2] [nM] | Cytotoxicity (Survival at 1 μM) [1] [%]
43 | CCCCCCn1c(-c2ccc(C)cc2C)csc1=NC(=O)c1ccccc1 [Compound 5o, N-(4-(2,4-Dimethylphenyl)-3-hexylthiazol-2(3H)-ylidene)benzamide] | 87 | 90.0
